The target of this assay is T1, human acetyl-CoA carboxylase 2 (ACC2) (Homo sapiens, UniProt O00763).
T1 construct: The cDNA encoding amino acids 144 to 2458 of human acetyl-CoA carboxylase 2; made in house; host or cells: Sf9 insect cells (baculovirus, pFastBac1)
T1 sequence (O00763 144-2458): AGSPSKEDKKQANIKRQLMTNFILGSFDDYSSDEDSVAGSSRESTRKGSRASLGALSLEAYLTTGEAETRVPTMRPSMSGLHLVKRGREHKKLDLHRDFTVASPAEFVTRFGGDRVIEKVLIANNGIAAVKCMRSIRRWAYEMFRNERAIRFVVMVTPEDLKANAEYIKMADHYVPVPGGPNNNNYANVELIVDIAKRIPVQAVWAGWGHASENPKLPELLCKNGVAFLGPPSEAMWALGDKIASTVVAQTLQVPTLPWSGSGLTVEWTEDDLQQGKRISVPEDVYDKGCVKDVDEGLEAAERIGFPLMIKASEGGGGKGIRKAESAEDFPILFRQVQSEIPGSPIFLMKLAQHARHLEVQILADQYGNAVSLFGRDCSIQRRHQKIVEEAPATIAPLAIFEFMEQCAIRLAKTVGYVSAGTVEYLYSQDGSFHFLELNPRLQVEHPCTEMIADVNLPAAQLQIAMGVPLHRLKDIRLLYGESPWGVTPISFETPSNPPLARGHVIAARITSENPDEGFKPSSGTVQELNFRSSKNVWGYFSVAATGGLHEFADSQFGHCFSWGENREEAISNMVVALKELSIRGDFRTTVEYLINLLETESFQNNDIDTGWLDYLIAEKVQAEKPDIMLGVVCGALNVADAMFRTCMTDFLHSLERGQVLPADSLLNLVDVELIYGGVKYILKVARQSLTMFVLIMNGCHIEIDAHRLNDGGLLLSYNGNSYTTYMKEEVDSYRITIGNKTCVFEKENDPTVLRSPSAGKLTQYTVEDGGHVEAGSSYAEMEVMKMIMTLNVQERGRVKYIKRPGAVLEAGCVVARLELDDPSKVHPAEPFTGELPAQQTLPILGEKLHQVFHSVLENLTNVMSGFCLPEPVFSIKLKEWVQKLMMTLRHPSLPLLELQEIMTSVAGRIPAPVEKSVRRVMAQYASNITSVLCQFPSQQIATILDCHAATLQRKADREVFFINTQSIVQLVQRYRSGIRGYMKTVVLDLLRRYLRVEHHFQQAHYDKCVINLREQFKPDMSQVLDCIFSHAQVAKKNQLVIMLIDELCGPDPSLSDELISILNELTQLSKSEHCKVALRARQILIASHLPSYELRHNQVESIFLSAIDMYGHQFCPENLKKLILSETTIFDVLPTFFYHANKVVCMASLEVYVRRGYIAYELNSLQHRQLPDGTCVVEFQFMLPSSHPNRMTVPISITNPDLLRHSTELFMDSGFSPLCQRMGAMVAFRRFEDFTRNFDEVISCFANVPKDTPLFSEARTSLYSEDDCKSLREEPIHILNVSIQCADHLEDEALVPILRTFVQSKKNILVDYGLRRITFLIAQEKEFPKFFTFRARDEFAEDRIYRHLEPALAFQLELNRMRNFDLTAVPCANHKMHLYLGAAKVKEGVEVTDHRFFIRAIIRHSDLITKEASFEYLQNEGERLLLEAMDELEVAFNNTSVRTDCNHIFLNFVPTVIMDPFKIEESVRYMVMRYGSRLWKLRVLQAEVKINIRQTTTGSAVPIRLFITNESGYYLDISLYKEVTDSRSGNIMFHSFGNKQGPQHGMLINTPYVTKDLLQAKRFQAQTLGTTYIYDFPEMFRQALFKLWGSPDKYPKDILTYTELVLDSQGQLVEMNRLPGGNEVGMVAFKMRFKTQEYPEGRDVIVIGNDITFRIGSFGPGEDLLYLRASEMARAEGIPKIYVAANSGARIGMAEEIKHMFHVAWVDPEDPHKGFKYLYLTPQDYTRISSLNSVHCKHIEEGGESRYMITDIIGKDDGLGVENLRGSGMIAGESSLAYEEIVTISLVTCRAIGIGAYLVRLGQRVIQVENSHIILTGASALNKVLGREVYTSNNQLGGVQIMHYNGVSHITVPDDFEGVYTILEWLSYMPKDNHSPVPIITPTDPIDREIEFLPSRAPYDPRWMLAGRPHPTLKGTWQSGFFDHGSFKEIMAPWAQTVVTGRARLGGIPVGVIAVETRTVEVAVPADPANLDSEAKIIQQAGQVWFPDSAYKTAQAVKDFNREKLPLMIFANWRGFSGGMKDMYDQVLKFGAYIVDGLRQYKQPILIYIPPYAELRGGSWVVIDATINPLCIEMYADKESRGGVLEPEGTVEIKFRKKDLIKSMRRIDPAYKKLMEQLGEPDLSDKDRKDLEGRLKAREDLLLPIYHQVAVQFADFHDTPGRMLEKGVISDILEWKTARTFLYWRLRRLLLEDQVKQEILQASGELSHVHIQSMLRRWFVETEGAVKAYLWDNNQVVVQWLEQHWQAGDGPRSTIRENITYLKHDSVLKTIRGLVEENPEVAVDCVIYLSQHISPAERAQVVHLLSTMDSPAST
Nature of the assay: Acetyl-CoA carboxylase enzyme assay (malonyl-CoA formation by LC/MS/MS). The class given is biochemical. Particulars: recombinant human ACC2 (aa 144-2458); read-out: IC50 ACC2. In a few lines: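 Malonyl-CoA formation was read by LC/MS/MS MRM against a [13C3]-malonyl-CoA internal standard, after acetic acid quench. The enzyme was baculovirus/Sf9-expressed human ACC2 residues 144–2458, given 15 minutes room-temperature compound preincubation in HEPES pH 7.5 buffer with MgCl2, citrate and DTT. Substrate solution held 50 μM acetyl-CoA, 120 μM ATP and 2 mM KHCO3.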
For orientation: IC50 means the concentration at which inhibition is half-maximal. As for `COC(=O)[C@H]1CC[C@H](CNS(=O)(=O)c2ccc3oc4ccccc4c3c2)CC1` [Example 267, (1r,4r)-methyl 4-((dibenzo[b,d]furan-2-sulfonamido)methyl)cyclohexanecarboxylate], the IC50 was > 35000 nM.

Take `Cn1ccc2cc(S(=O)(=O)N[C@H]3CC[C@H](C(=O)N[C@H]4CCCCNC4=O)CC3)ccc21` [Example 672, (1r,4S)-4-(1-methyl-1H-indole-5-sulfonamido)-N-((S)-2-oxoazepan-3-yl)cyclohexanecarboxamide]: the IC50 stood at 639 nM. The result for `COc1ccc2cc(S(=O)(=O)N[C@H]3CC[C@H](C(=O)N[C@H](C)c4ccc(F)cc4)CC3)ccc2n1` [Example 49, (1r,4R)-N-((R)-1-(4-fluorophenyl)ethyl)-4-(2-methoxyquinoline-6-sulfonamido)cyclohexanecarboxamide] reads 43 nM; that for `CC(C)OC(=O)c1ccc(NS(=O)(=O)c2ccc3nc(-c4ccc(N(C)C)cc4)[nH]c3c2)cc1` [Example 508, isopropyl 4-(2-(4-(dimethylamino)phenyl)-1H-benzo[d]imidazole-6-sulfonamido)benzoate], 1380 nM.

Take `CCOc1ccc2cc(S(=O)(=O)N[C@H]3CC[C@H](C(=O)N4CCNC[C@@H]4c4ccccc4)CC3)ccc2n1` [Example 234, 2-ethoxy-N-((1S,4r)-4-((S)-2-phenylpiperazine-1-carbonyl)cyclohexyl)quinoline-6-sulfonamide]: the IC50 was 20 nM. Turning to `Cn1c(-c2ccccc2)cc2cc(S(=O)(=O)N[C@H]3CC[C@H](C(=O)N[C@@H](c4ccccc4)C(C)(C)O)CC3)ccc21` [Example 15, (1r,4S)—N—((S)-2-hydroxy-2-methyl-1-phenylpropyl)-4-(1-methyl-2-phenyl-1H-indole-5-sulfonamido)cyclohexanecarboxamide], the IC50 was < 10 nM. The result for `C[C@@H](NC(=O)[C@H]1CC[C@H](NS(=O)(=O)c2cnc3c(c2)N(C)CCCN3C)CC1)c1ccc(F)cc1` [Example 128, (1r,4R)-4-(1,5-dimethyl-2,3,4,5-tetrahydro-1H-pyrido[2,3-b][1,4]diazepine-8-sulfonamido)-N-((R)-1-(4-fluorophenyl)ethyl)cyclohexanecarboxamide] reads 146 nM; that for `CC(C)OC(=O)c1ccc(NS(=O)(=O)c2ccc3[nH]c(Nc4ccc(N5CCOCC5)cc4)nc3c2)cc1` [Example 532, isopropyl 4-(2-(4-morpholinophenylamino)-1H-benzo[d]imidazole-5-sulfonamido)benzoate], 109 nM; that for `O=C(NCc1cc(F)cc(F)c1)[C@H]1CC[C@H](NS(=O)(=O)c2ccc3[nH]c(-c4ccccc4)nc3c2)CC1` [Example 644, (1r,4r)-N-(3,5-difluorobenzyl)-4-(2-phenyl-1H-benzo[d]imidazole-5-sulfonamido)cyclohexanecarboxamide], 588 nM. `CC(C)(C)c1nnc(-c2ccc(NS(=O)(=O)c3ccc4nc(-c5ccccc5)[nH]c4c3)cc2)o1` [Example 513, N-(4-(5-tert-butyl-1,3,4-oxadiazol-2-yl)phenyl)-2-phenyl-1H-benzo[d]imidazole-6-sulfonamide]: the IC50 worked out at 2880 nM.

Take `C[C@@H](NC(=O)[C@H]1CC[C@H](NS(=O)(=O)c2cnc3c(c2)N(CC(F)(F)F)CCN3C)CC1)c1ccc(F)cc1` [Example 135, (1r,4R)-N-((R)-1-(4-fluorophenyl)ethyl)-4-(4-methyl-1-(2,2,2-triffuoroethyl)-1,2,3,4-tetrahydropyrido[3,2-b]pyrazine-7-sulfonamido)cyclohexanecarboxamide]: the IC50 turned out to be 157 nM. As for `C[C@@H](NC(=O)[C@H]1CC[C@H](NS(=O)(=O)c2ccc3[nH]c(CC(=O)O)nc3c2)CC1)c1ccc(F)cc1` [Example 668, 2-(5-(N-((1R,4r)-4-((R)-1-(4-fluorophenyl)ethylcarbamoyl)cyclohexyl)sulfamoyl)-1H-benzo[d]imidazol-2-yl)acetic acid], the figure is 124 nM; as for “N-(4-(5-isopropyl-1,3,4-oxadiazol-2-yl)phenyl)-2-(4-morpholinophenyl)-1H-benzo[d]imidazole-5-sulfonamide [Example 591]”, 1130 nM; as for `C[C@H]1CCCCN1C(=O)[C@H]1CC[C@H](NS(=O)(=O)c2ccc3c(C#N)c(-c4ccc(CCC(=O)O)cc4)n(C)c3c2)CC1` [Example 415, 3-(4-(3-cyano-1-methyl-6-(N-((1S,4r)-4-((S)-2-methylpiperidine-1-carbonyl)cyclohexyl)sulfamoyl)-1H-indol-2-yl)phenyl)propanoic acid], < 10 nM.

Consider `O=C([C@H]1CC[C@H](NS(=O)(=O)c2cnc3ccccc3c2)CC1)N1CCCCC1c1ccccc1` (stereo partly drawn) [Example 59, N-((1r,4r)-4-(2-phenylpiperidine-1-carbonyl)cyclohexyl)quinoline-3-sulfonamide], for which the IC50 was found to be 339 nM.

For the compound `C[C@H]1COCCN1C(=O)[C@H]1CC[C@H](NS(=O)(=O)c2ccc3cc(-c4ccccc4)[nH]c3c2)CC1` [Example 462, N-((1S,4r)-4-((S)-3-methylmorpholine-4-carbonyl)cyclohexyl)-2-phenyl-1H-indole-6-sulfonamide], the IC50 was 15 nM. In the case of `O=C(NC1(c2ccccc2)CC1)[C@H]1CC[C@H](NS(=O)(=O)c2ccc3[nH]c(-c4ccccc4)nc3c2)CC1` [Example 581, (1r,4r)-4-(2-phenyl-1H-benzo[d]imidazole-5-sulfonamido)-N-(1-phenylcyclopropyl)cyclohexanecarboxamide], the IC50 stood at 309 nM. For `CC(=O)c1ccc(Nc2nc3cc(S(=O)(=O)Nc4ccc(C(=O)OC(C)C)cc4)ccc3[nH]2)cc1` [Example 548, isopropyl 4-(2-(4-acetylphenylamino)-1H-benzo[d]imidazole-5-sulfonamido)benzoate], the IC50 came out at 75 nM. The result for `Cc1ccccc1-c1cc2ccc(S(=O)(=O)NC3CCC(C(=O)N4CCOCC4c4ccccc4)CC3)cc2[nH]1` [Example 327, N-((1S,4r)-4-((S)-3-phenylmorpholine-4-carbonyl)cyclohexyl)-2-o-tolyl-1H-indole-6-sulfonamide] reads < 10 nM; that for `C[C@@H](OC(=O)C1(C)CCC(NS(=O)(=O)c2ccc3c(ccn3C)c2)CC1)c1ccccc1` (stereo partly drawn) [Example 398, (R)-1-phenylethyl 1-methyl-4-(1-methyl-1H-indole-5-sulfonamido)cyclohexanecarboxylate], < 10 nM; that for `CCn1c(-c2ccccc2)cc2ccc(S(=O)(=O)N[C@H]3CC[C@H](C(=O)N4CCOC[C@@H]4C)CC3)cc21` [Example 486, 1-ethyl-N-((1S,4r)-4-((S)-3-methylmorpholine-4-carbonyl)cyclohexyl)-2-phenyl-1H-indole-6-sulfonamide], 75 nM.

Consider `O=C([C@H]1CC[C@H](NS(=O)(=O)c2cnc3ccccc3c2)CC1)N1CCNCC1c1ccccc1` (stereo partly drawn) [Example 61, N-((1r,4r)-4-(2-phenylpiperazine-1-carbonyl)cyclohexyl)quinoline-3-sulfonamide], for which the IC50 was found to be 98 nM.

With `Cn1c(-c2ccccc2)cc2ccc(S(=O)(=O)N[C@H]3CC[C@H](C(=O)N[C@@H](c4ccccc4)C(C)(C)O)CC3)cc21` [Example 352, (1r,4S)-N-((S)-2-hydroxy-2-methyl-1-phenylpropy1)-4-(1-methyl-2-phenyl-1H-indole-6-sulfonamido)cyclohexanecarboxamide], the IC50 was < 10 nM.

Consider `CCOc1ccc2cc(S(=O)(=O)N[C@H]3CC[C@H](C(=O)N[C@H](COC(=O)[C@@H](N)Cc4ccccc4)c4ccccc4)CC3)ccc2n1` [Example 273, (S)-((S)-2-((1r,4S)-4-(2-ethoxyquinoline-6-sulfonamido)cyclohexanecarboxamido)-2-phenylethyl) 2-amino-3-phenylpropanoate], for which the IC50 came to 39 nM. As for `C[C@@H]1CCCN1C(=O)[C@H]1CC[C@H](NS(=O)(=O)c2cnc3c(c2)N(C)CCN3C)CC1` [Example 129, 1,4-dimethyl-N-((1R,4r)-4-((R)-2-methylpyrrolidine-1-carbonyl)cyclohexyl)-1,2,3,4-tetrahydropyrido[3,2-b]pyrazine-7-sulfonamide], the figure is 10400 nM. The result for `COc1cccc(-c2nc3ccc(S(=O)(=O)Nc4ccc(C(=O)OC(C)C)cc4)cc3[nH]2)c1` [Example 500, isopropyl 4-(2-(3-methoxyphenyl)-1H-benzo[d]imidazole-6-sulfonamido)benzoate] reads 1490 nM; that for `CC(C)OC(=O)c1ccc(NS(=O)(=O)c2ccc3[nH]c(Nc4ccc(F)cc4)nc3c2)cc1` [Example 522, isopropyl 4-(2-(4-fluorophenylamino)-1H-benzo[d]imidazole-5-sulfonamido)benzoate], 320 nM; that for `COCc1nnc(-c2ccc(NS(=O)(=O)c3ccc4nc(-c5ccccc5)[nH]c4c3)cc2)o1` [Example 520, N-(4-(5-(methoxymethyl)-1,3,4-oxadiazol-2-yl)phenyl)-2-phenyl-1H-benzo[d]imidazole-6-sulfonamide], 9350 nM. The result for `C[C@@H](NC(=O)[C@H]1CC[C@H](NS(=O)(=O)c2ccc3nc(N(C)C)ccc3c2)CC1)c1ccc(F)cc1` [Example 53, (1r,4R)-4-(2-(dimethylamino)quinoline-6-sulfonamido)-N-((R)-1-(4-fluorophenyl)ethyl)cyclohexanecarboxamide] reads 93 nM.

As to `CC(=O)Nc1ccc(-c2nc3ccc(S(=O)(=O)N[C@H]4CC[C@H](C(=O)OC(C)C)CC4)cc3[nH]2)cc1` [Example 8, (1r,4r)-isopropyl 4-(2-(4-acetamidophenyl)-1H-benzo[d]imidazole-5-sulfonamido)cyclohexanecarboxylate], the IC50 stood at 45 nM.

These data come from patent publication US8697739B2, “Bicyclic acetyl-CoA carboxylase inhibitors and uses thereof” (Novartis AG, priority 2010, dated 2014).
